Experimental data taken from patent US11560371B2, “Cereblon binding compounds, compositions thereof, and methods of treatment therewith” (Celgene Corporation, priority 2020, dated 2023).
Structures can show the parent of a compound that is named as a salt.

Biological target: T1, AR (Homo sapiens, UniProt P10275)
T1 construct: endogenous in cells; host or cells: VCaP cells
T1 sequence (P10275 1-920): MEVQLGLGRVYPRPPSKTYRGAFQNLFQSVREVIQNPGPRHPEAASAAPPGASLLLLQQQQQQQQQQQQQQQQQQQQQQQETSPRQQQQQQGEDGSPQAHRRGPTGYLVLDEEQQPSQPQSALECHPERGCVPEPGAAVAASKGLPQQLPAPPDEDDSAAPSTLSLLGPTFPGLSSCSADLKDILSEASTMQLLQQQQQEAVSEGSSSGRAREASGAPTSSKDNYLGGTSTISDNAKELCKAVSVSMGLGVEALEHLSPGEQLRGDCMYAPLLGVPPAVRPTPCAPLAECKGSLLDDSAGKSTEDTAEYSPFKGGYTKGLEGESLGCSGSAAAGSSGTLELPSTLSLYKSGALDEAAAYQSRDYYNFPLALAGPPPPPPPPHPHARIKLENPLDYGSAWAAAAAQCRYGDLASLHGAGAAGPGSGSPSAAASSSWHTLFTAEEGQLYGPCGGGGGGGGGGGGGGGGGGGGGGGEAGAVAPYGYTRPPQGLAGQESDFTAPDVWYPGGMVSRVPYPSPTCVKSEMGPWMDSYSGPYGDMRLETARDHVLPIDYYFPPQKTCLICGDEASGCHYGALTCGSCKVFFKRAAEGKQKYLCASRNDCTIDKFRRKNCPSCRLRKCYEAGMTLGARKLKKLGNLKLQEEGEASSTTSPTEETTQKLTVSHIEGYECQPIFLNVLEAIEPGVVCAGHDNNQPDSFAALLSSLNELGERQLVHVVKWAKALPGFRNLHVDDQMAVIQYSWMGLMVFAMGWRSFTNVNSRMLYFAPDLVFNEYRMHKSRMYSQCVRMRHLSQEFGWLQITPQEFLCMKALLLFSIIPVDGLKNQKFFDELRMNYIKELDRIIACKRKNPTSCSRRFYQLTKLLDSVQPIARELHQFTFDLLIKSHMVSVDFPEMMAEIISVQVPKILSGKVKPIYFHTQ
Experiment: VCAP AR Degradation Assay
Format: cell-based
Details: VCaP cells, 24 h, AR ELISA; for DC50: concentration of compound when AR level = 50% of DMSO control (50% AR degradation); for Y: lowest measured AR level normalized to DMSO control (AR degradation efficiency)
Description: VCAP AR Degradation Assay. Test compounds were pre-dispensed into a Corning CellBind 96-well clear bottom plate (Cat #3300) using an acoustic dispenser to make a 10-point concentration series at 1:3 dilution for each compound. The final top concentration of each compound was 5 μM. DMSO at a final concentration of 0.1% was used as a control. VCaP cells cultured in DMEM with 8% fetal bovine serum (FBS) were seeded at 50K cells per well in a 200 μL volume into the compound plate and incubated at 37° C. in a CO2 incubator for 24 h. The medium was carefully removed from the cells and the plate was placed on ice. […] ice-cold 1× cell lysis buffer from Cell Signaling Technologies (Cat #9803) was added to each well of the cells and the plate was incubated at 4° C. on a shaker for 1 h. Fifteen μL of cell lysate was used for AR ELISA detection using a PathScan Total Sandwich AR ELISA kit (Cell Signaling Technology, Cat #12580). AR levels in compound-treated wells were normalized to that of DMSO control and expressed as percent of control (PoC) (y). A Four Parameter Logistic Model (Sigmoidal Dose-Response Model) was used to determine the compound's DC50, and EC50, using the following equation: y=(A+((B−A)/(1+((C/x)^D)))) • A=YMin (lowest AR level normalized to DMSO control in response to compound treatment, as determined by curve fit) • B=YMax (maximum AR level as determined by curve fit) • C=EC50 • D=Hill Slope • x=compound concentration • EC50=the concentration of compound when y=[…] • DC50=the concentration of the compound when y=50% of DMSO control (50% AR degradation) • y=AR protein level normalized to DMSO control
The lowest measured AR level normalized to DMSO control in response to compound treatment, termed Y value, was used to characterize the compound-mediated AR degradation efficiency.

SMILES | DC50 | Y
C[C@@H]1CN(CCCO[C@H]2CC[C@H](N3C(=S)N(c4ccc(C#N)c(C(F)(F)F)c4)C(=O)C3(C)C)CC2)C[C@H](C)N1CC(=O)Nc1cccc2c(N3CCC(=O)NC3=O)nn(C)c12 [Cmpd 8, 2-((2R,6S)-4-(3-((trans-4-(3-(4-Cyano-3-(trifluoromethyl)phenyl)-5,5-dimethyl-4-oxo-2-thioxoimidazolidin-1-yl)cyclohexyl)oxy)propyl)-2,6-dimethylpiperazin-1-yl)-N-(3-(2,4-dioxotetrahydropyrimidin-1(2H)-yl)-1-methyl-1H-indazol-7-yl)acetamide hydrochloride] | ≤ 2 nM | * (0<Y≤20%)
C[C@@H]1CN(CCC[C@H]2CC[C@H](N3C(=S)N(c4cnc(C#N)c(Cl)c4)C(=O)C3(C)C)CC2)C[C@H](C)N1CC(=O)Nc1cccc2c(N3CCC(=O)NC3=O)nn(C)c12 [Cmpd 12, 2-((2R,6S)-4-(3-(trans-4-(3-(5-Chloro-6-cyanopyridin-3-yl)-5,5-dimethyl-4-oxo-2-thioxoimidazolidin-1-yl)cyclohexyl)propyl)-2,6-dimethylpiperazin-1-yl)-N-(3-(2,4-dioxotetrahydropyrimidin-1(2H)-yl)-1-methyl-1H-indazol-7-yl)acetamide hydrochloride] | 2 to 10 nM | ** (20%<Y≤%)
C[C@@H]1CN(CCO[C@H]2CC[C@H](N3C(=S)N(c4ccc(C#N)c(C(F)(F)F)c4)C(=O)C3(C)C)CC2)C[C@H](C)N1CCC(=O)Nc1cccc2c(N3CCC(=O)NC3=O)nn(C)c12 [Cmpd 5, 3-((2R,6S)-4-(2-((trans-4-(3-(4-Cyano-3-(trifluoromethyl)phenyl)-5,5-dimethyl-4-oxo-2-thioxoimidazolidin-1-yl)cyclohexyl)oxy)ethyl)-2,6-dimethylpiperazin-1-yl)-N-(3-(2,4-dioxotetrahydropyrimidin-1(2H)-yl)-1-methyl-1H-indazol-7-yl)propanamide] | 2 to 10 nM | *** (30%<Y<60%)
C[C@@H]1CN(CCO[C@H]2CC[C@H](N3C(=S)N(c4ccc(C#N)c(C(F)(F)F)c4)C(=O)C3(C)C)CC2)C[C@H](C)N1CCCOc1cccc2c(N3CCC(=O)NC3=O)nn(C)c12 [Cmpd 16, 4-(3-(trans-4-(2-((3S,5R)-4-(3-((3-(2,4-dioxotetrahydropyrimidin-1(2H)-yl)-1-methyl-1H-indazol-7-yl)oxy)propyl)-3,5-dimethylpiperazin-1-yl)ethoxy)cyclohexyl)-4,4-dimethyl-5-oxo-2-thioxoimidazolidin-1-yl)-2-(trifluoromethyl)benzonitrile hydrochloride] | 100 to 10000 nM | *** (30%<Y<60%)
C[C@@H]1C[C@@H](CCO[C@H]2CC[C@H](N3C(=S)N(c4ccc(C#N)c(C(F)(F)F)c4)C(=O)C3(C)C)CC2)C[C@H](C)N1CC(=O)Nc1cccc2c(N3CCC(=O)NC3=O)nn(C)c12 [Cmpd 13, 2-((2R,4s,6S)-4-(2-((trans-4-(3-(4-Cyano-3-(trifluoromethyl)phenyl)-5,5-dimethyl-4-oxo-2-thioxoimidazolidin-1-yl)cyclohexyl)oxy)ethyl)-2,6-dimethylpiperidin-1-yl)-N-(3-(2,4-dioxotetrahydropyrimidin-1(2H)-yl)-1-methyl-1H-indazol-7-yl)acetamide hydrochloride] | 2 to 10 nM | * (0<Y≤20%)
C[C@@H]1CN(CCO[C@H]2CC[C@H](N3C(=S)N(c4cnc(C#N)c(Cl)c4)C(=O)C3(C)C)CC2)C[C@H](C)N1CC(=O)Nc1cccc2c(N3CCC(=O)NC3=O)nn(C)c12 [Cmpd 6, 2-((2R,6S)-4-(2-((trans-4-(3-(5-Chloro-6-cyanopyridin-3-yl)-5,5-dimethyl-4-oxo-2-thioxoimidazolidin-1-yl)cyclohexyl)oxy)ethyl)-2,6-dimethylpiperazin-1-yl)-N-(3-(2,4-dioxotetrahydropyrimidin-1(2H)-yl)-1-methyl-1H-indazol-7-yl)acetamide hydrochloride] | ≤ 2 nM | * (0<Y≤20%)
C[C@@H]1C[C@@H](CCOC2CCC(N3C(=S)N(c4cnc(C#N)c(C(F)(F)F)c4)C(=O)C3(C)C)CC2)C[C@H](C)N1CC(=O)Nc1cccc2c(N3CCC(=O)NC3=O)nn(C)c12 (stereo partly drawn) [Cmpd 25, 2-((2R,4s,6S)-4-(2-(((trans)-4-(3-(6-Cyano-5-(trifluoromethyl)pyridin-3-yl)-5,5-dimethyl-4-oxo-2-thioxoimidazolidin-1-yl)cyclohexyl)oxy)ethyl)-2,6-dimethylpiperidin-1-yl)-N-(3-(2,4-dioxotetrahydropyrimidin-1(2H)-yl)-1-methyl-1H-indazol-7-yl)acetamide] | ≤ 2 nM | * (0<Y≤20%)
C[C@@H]1C[C@H](OCCO[C@H]2CC[C@H](N3C(=S)N(c4cnc(C#N)c(C(F)(F)F)c4)C(=O)C3(C)C)CC2)C[C@H](C)N1CC(=O)Nc1cccc2c(N3CCC(=O)NC3=O)nn(C)c12 [Cmpd 34, 2-((2R,4r,6S)-4-(2-(((trans)-4-(3-(6-Cyano-5-(trifluoromethyl)pyridin-3-yl)-5,5-dimethyl-4-oxo-2-thioxoimidazolidin-1-yl)cyclohexyl)oxy)ethoxy)-2,6-dimethylpiperidin-1-yl)-N-(3-(2,4-dioxotetrahydropyrimidin-1(2H)-yl)-1-methyl-1H-indazol-7-yl)acetamide] | ≤ 2 nM | ** (20%<Y≤%)
C[C@@H]1CN(CCCO[C@H]2CC[C@H](N3C(=S)N(c4ccc(C#N)c(Cl)c4)C(=O)C3(C)C)CC2)C[C@H](C)N1CC(=O)Nc1cccc2c(N3CCC(=O)NC3=O)nn(C)c12 [Cmpd 9, 2-((2R,6S)-4-(3-((trans-4-(3-(3-Chloro-4-cyanophenyl)-5,5-dimethyl-4-oxo-2-thioxoimidazolidin-1-yl)cyclohexyl)oxy)propyl)-2,6-dimethylpiperazin-1-yl)-N-(3-(2,4-dioxotetrahydropyrimidin-1(2H)-yl)-1-methyl-1H-indazol-7-yl)acetamide hydrochloride] | ≤ 2 nM | * (0<Y≤20%)
Cn1nc(N2CCC(=O)NC2=O)c2cccc(NC(=O)CN3CCN(CCCO[C@H]4CC[C@H](N5C(=S)N(c6ccc(C#N)c(C(F)(F)F)c6)C(=O)C5(C)C)CC4)C[C@@H]3C(F)(F)F)c21 [Cmpd 26, 2-((R)-4-(3-(((trans)-4-(3-(4-Cyano-3-(trifluoromethyl)phenyl)-5,5-dimethyl-4-oxo-2-thioxoimidazolidin-1-yl)cyclohexyl)oxy)propyl)-2-(trifluoromethyl)piperazin-1-yl)-N-(3-(2,4-dioxotetrahydropyrimidin-1(2H)-yl)-1-methyl-1H-indazol-7-yl)acetamide] | 2 to 10 nM | * (0<Y≤20%)
C[C@@H]1CN(CCO[C@H]2CC[C@H](N3C(=S)N(c4ccc(C#N)c(C(F)(F)F)c4)C(=O)C3(C)C)CC2)C[C@H](C)N1CC(=O)Nc1cccc2c(N3CCC(=O)NC3=O)nn(C)c12 [Cmpd 1, 2-((2S,6R)-4-(2-((trans-4-(3-(4-Cyano-3-(trifluoromethyl)phenyl)-5,5-dimethyl-4-oxo-2-thioxoimidazolidin-1-yl)cyclohexyl)oxy)ethyl)-2,6-dimethylpiperazin-1-yl)-N-(3-(2,4-dioxotetrahydropyrimidin-1(2H)-yl)-1-methyl-1H-indazol-7-yl)acetamide hydrochloride] | 10 to 100 nM | *** (30%<Y<60%)
